According to PubChem BioAssay AID248 (DTP/NCI, 2004):
“And” between values parts separate entries of the source, which are not always exact repeats. Equal values may be shown once. Toxic doses and inconclusive results are not listed. Rule as the data show it: active = T/C of 150% or more; inactive = T/C below 125%.

System: L1210 leukemia ip in BDF1 mice, survival T/C
Experiment: NCI In Vivo Anticancer Drug Screen. Data for tumor model L1210 Leukemia (intraperitoneal) in B6D2F1 (BDF1) mice
Settings: endpoint: mean survival time, higher = longer survival
Method in brief: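 In this screen, tumor-bearing mice given compound are compared to those given vehicle, and their survival values are reported as a treated-to-control quotient.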

[1] = dose: 100.0 mg/kg/injection, schedule: Q01DX001 (ip), vehicle: carboxymethylcellulose (CMC)
[2] = dose: 100.0 mg/kg/injection, schedule: Q04DX003 (ip), vehicle: saline with Tween-80
[3] = dose: 100.0 mg/kg/injection, schedule: Q01DX009 (ip), vehicle: Klucel (hydroxypropylcellulose) (HPC)
[4] = dose: 100.0 mg/kg/injection, schedule: Q04DX003 (ip), vehicle: Klucel (hydroxypropylcellulose) (HPC)
[5] = dose: 200.0 mg/kg/injection, schedule: Q01DX009 (ip), vehicle: Klucel (hydroxypropylcellulose) (HPC)
[6] = dose: 200.0 mg/kg/injection, schedule: Q04DX003 (ip), vehicle: Klucel (hydroxypropylcellulose) (HPC)
[7] = dose: 400.0 mg/kg/injection, schedule: Q01DX009 (ip), vehicle: Klucel (hydroxypropylcellulose) (HPC)
[8] = dose: 400.0 mg/kg/injection, schedule: Q04DX003 (ip), vehicle: Klucel (hydroxypropylcellulose) (HPC)
[9] = dose: 25.0 mg/kg/injection, schedule: Q01DX009 (ip), vehicle: saline
[10] = dose: 50.0 mg/kg/injection, schedule: Q01DX009 (ip), vehicle: saline
[11] = dose: 100.0 mg/kg/injection, schedule: Q01DX009 (ip), vehicle: saline
[12] = dose: 200.0 mg/kg/injection, schedule: Q01DX001 (ip), vehicle: carboxymethylcellulose (CMC)
[13] = dose: 400.0 mg/kg/injection, schedule: Q01DX001 (ip), vehicle: carboxymethylcellulose (CMC)
[14] = dose: 100.0 mg/kg/injection, schedule: Q01DX001 (ip), vehicle: saline
[15] = dose: 200.0 mg/kg/injection, schedule: Q01DX001 (ip), vehicle: saline
[16] = dose: 400.0 mg/kg/injection, schedule: Q01DX001 (ip), vehicle: saline
[17] = dose: 50.0 mg/kg/injection, schedule: Q04DX003 (ip), vehicle: saline with Tween-80
[18] = dose: 200.0 mg/kg/injection, schedule: Q04DX003 (ip), vehicle: saline with Tween-80

Measured: T/C

CCOC(=O)C(Cc1csc2ccccc12)(NC(C)=O)C(=O)OCC
inactive: dose: 44.4 mg/kg/injection, schedule: Q01DX001 (ip), vehicle: carboxymethylcellulose (CMC) 93 % of control and 94 % of control | dose: 66.7 mg/kg/injection, schedule: Q01DX001 (ip), vehicle: carboxymethylcellulose (CMC) 93 % of control and 94 % of control | [1] 94 % of control and 98 % of control | dose: 150.0 mg/kg/injection, schedule: Q01DX001 (ip), vehicle: carboxymethylcellulose (CMC) 101 % of control and 91 % of control

CC1(C)CC(=O)C2=C(C1)Nc1ccccc1NC2c1ccc([N+](=O)[O-])cc1 (centres undefined)
inactive: dose: 100.0 mg/kg/injection, schedule: Q04DX002 (ip), vehicle: Klucel (hydroxypropylcellulose) (HPC) 103 % of control | dose: 200.0 mg/kg/injection, schedule: Q04DX002 (ip), vehicle: Klucel (hydroxypropylcellulose) (HPC) 109 % of control | dose: 400.0 mg/kg/injection, schedule: Q04DX002 (ip), vehicle: Klucel (hydroxypropylcellulose) (HPC) 106 % of control

CCOC(=O)C1CNc2ccccc2N1 (centres undefined)
inactive: dose: 25.0 mg/kg/injection, schedule: Q01DX009 (ip), vehicle: saline with Tween-80 93 % of control | dose: 50.0 mg/kg/injection, schedule: Q01DX009 (ip), vehicle: saline with Tween-80 110 % of control | [2] 105 % of control

CCCCC(C(=O)OCC)C(CCC1CCCCC1)(C(=O)OCC)C(=O)OCC (centres undefined)
inactive: [3] 95 % of control | [4] 96 % of control | [5] 110 % of control | [6] 106 % of control | [7] 105 % of control | [8] 95 % of control

CCC(CC)OCCN1CCN(CCCN2c3ccccc3Sc3ccc(C(F)(F)F)cc32)CC1
inactive: dose: 0.39 mg/kg/injection, schedule: Q01DX009 (ip), vehicle: saline with Tween-80 107 % of control | dose: 0.78 mg/kg/injection, schedule: Q01DX009 (ip), vehicle: saline with Tween-80 107 % of control | dose: 1.56 mg/kg/injection, schedule: Q01DX009 (ip), vehicle: saline with Tween-80 95 % of control | dose: 1.56 mg/kg/injection, schedule: Q04DX003 (ip), vehicle: saline with Tween-80 97 % of control | dose: 3.12 mg/kg/injection, schedule: Q04DX003 (ip), vehicle: saline with Tween-80 96 % of control | dose: 6.25 mg/kg/injection, schedule: Q04DX003 (ip), vehicle: saline with Tween-80 112 % of control | dose: 12.5 mg/kg/injection, schedule: Q04DX003 (ip), vehicle: saline with Tween-80 97 % of control

COC1=CCC2C(=O)OC(=O)C2C1 (centres undefined)
inactive: [9] 90 % of control | [10] 94 % of control | [11] 100 % of control | dose: 200.0 mg/kg/injection, schedule: Q01DX009 (ip), vehicle: saline 109 % of control | dose: 400.0 mg/kg/injection, schedule: Q01DX009 (ip), vehicle: saline 100 % of control

COc1ccc2c(c1)CC=CO2
inactive: [1] 107 % of control | [12] 94 % of control | [13] 100 % of control

Nc1ncnc2c1ncn2C1CC(CO)C(O)C1O (centres undefined)
inactive: dose: 2.0 mg/kg/injection, schedule: Q01DX015 (ip), vehicle: Klucel (hydroxypropylcellulose) (HPC) 114 % of control | dose: 3.0 mg/kg/injection, schedule: Q01DX015 (ip), vehicle: Klucel (hydroxypropylcellulose) (HPC) 91 % of control | dose: 4.4 mg/kg/injection, schedule: Q01DX015 (ip), vehicle: Klucel (hydroxypropylcellulose) (HPC) 93 % of control | dose: 6.25 mg/kg/injection, schedule: Q01DX009 (ip), vehicle: carboxymethylcellulose (CMC) 98 % of control | dose: 6.7 mg/kg/injection, schedule: Q01DX015 (ip), vehicle: Klucel (hydroxypropylcellulose) (HPC) 96 % of control | dose: 10.0 mg/kg/injection, schedule: Q01DX015 (ip), vehicle: Klucel (hydroxypropylcellulose) (HPC) 97 % of control | dose: 12.5 mg/kg/injection, schedule: Q01DX009 (ip), vehicle: carboxymethylcellulose (CMC) 97 % of control | dose: 15.0 mg/kg/injection, schedule: Q01DX015 (ip), vehicle: Klucel (hydroxypropylcellulose) (HPC) 98 % of control | dose: 25.0 mg/kg/injection, schedule: Q01DX009 (ip), vehicle: carboxymethylcellulose (CMC) 89 % of control | dose: 50.0 mg/kg/injection, schedule: Q01DX001 (ip), vehicle: saline 93 % of control | [14] 102 % of control | [15] 91 % of control | [16] 88 % of control

CN(C)c1ccc2c(c1)Cc1cc(N3C(=O)C=CC3=O)ccc1-2
inactive: [4] 101 % of control | [6] 101 % of control | [8] 95 % of control

Cc1coc2c1CC1(C)C(CCC(O)C1C)C2 (centres undefined)
inactive: [14] 97 % of control | [15] 100 % of control | [16] 103 % of control

CC(=O)OC1CC2CC1C1C3C=CC(C3)C21 (centres undefined)
inactive: [14] 98 % of control | [15] 95 % of control | [16] 106 % of control

COC(=O)c1ccccc1N(C)C(=O)Nc1ccc(F)cc1
inactive: [1] 94 % of control | dose: 100.0 mg/kg/injection, schedule: Q01DX009 (ip), vehicle: carboxymethylcellulose (CMC) 92 % of control and 97 % of control | dose: 100.0 mg/kg/injection, schedule: Q04DX002 (ip), vehicle: carboxymethylcellulose (CMC) 92 % of control and 100 % of control | dose: 100.0 mg/kg/injection, schedule: Q04DX003 (ip), vehicle: carboxymethylcellulose (CMC) 104 % of control | [12] 101 % of control | dose: 200.0 mg/kg/injection, schedule: Q01DX009 (ip), vehicle: carboxymethylcellulose (CMC) 87 % of control and 90 % of control | dose: 200.0 mg/kg/injection, schedule: Q04DX002 (ip), vehicle: carboxymethylcellulose (CMC) 98 % of control and 89 % of control | dose: 200.0 mg/kg/injection, schedule: Q04DX003 (ip), vehicle: carboxymethylcellulose (CMC) 102 % of control | [13] 89 % of control | dose: 400.0 mg/kg/injection, schedule: Q01DX009 (ip), vehicle: carboxymethylcellulose (CMC) 98 % of control and 105 % of control | dose: 400.0 mg/kg/injection, schedule: Q04DX002 (ip), vehicle: carboxymethylcellulose (CMC) 98 % of control | dose: 400.0 mg/kg/injection, schedule: Q04DX003 (ip), vehicle: carboxymethylcellulose (CMC) 90 % of control

O=C(Cl)C(Cl)(Cl)Cl
inactive: dose: 100.0 mg/kg/injection, schedule: Q04DX002 (sc), vehicle: olive oil, sesame oil, peanut oil 103 % of control | dose: 200.0 mg/kg/injection, schedule: Q04DX002 (sc), vehicle: olive oil, sesame oil, peanut oil 116 % of control | dose: 400.0 mg/kg/injection, schedule: Q04DX002 (sc), vehicle: olive oil, sesame oil, peanut oil 100 % of control

[N-]=[N+]=Nc1ccc(Cl)cc1C(=O)c1ccccc1
inactive: [9] 120 % of control | dose: 25.0 mg/kg/injection, schedule: Q04DX003 (ip), vehicle: saline 98 % of control | [10] 109 % of control | dose: 50.0 mg/kg/injection, schedule: Q04DX003 (ip), vehicle: saline 104 % of control | [11] 111 % of control | dose: 100.0 mg/kg/injection, schedule: Q04DX003 (ip), vehicle: saline 102 % of control and 113 % of control

CNC(=O)Oc1ccccc1NC(=O)OC
inactive: dose: 25.0 mg/kg/injection, schedule: Q04DX003 (ip), vehicle: saline with Tween-80 97 % of control | [17] 95 % of control | [2] 92 % of control and 97 % of control

O=C(O)/C=C/C=C/c1ccccc1
inactive: [2] 97 % of control | [18] 92 % of control | dose: 400.0 mg/kg/injection, schedule: Q04DX003 (ip), vehicle: saline with Tween-80 106 % of control

CCNCCC[P+](c1ccccc1)(c1ccccc1)c1ccccc1
inactive: dose: 25.0 mg/kg/injection, schedule: Q04DX002 (ip), vehicle: saline 98 % of control | dose: 50.0 mg/kg/injection, schedule: Q04DX002 (ip), vehicle: saline 105 % of control | dose: 100.0 mg/kg/injection, schedule: Q04DX002 (ip), vehicle: saline 98 % of control and 91 % of control

Cc1c2ccccc2cc2[n+]1CCc1ccccc1-2
inactive: [17] 100 % of control | dose: 100.0 mg/kg/injection, schedule: Q01DX001 (ip), vehicle: saline with Tween-80 98 % of control | [2] 105 % of control | dose: 200.0 mg/kg/injection, schedule: Q01DX001 (ip), vehicle: saline with Tween-80 96 % of control | [18] 107 % of control

CCC(C#N)c1ccccc1 (centres undefined)
inactive: [3] 103 % of control | [4] 110 % of control | [5] 92 % of control | [6] 119 % of control | [7] 103 % of control | [8] 96 % of control
